The source of these data is patent publication US20140256756A1, “PIPERIDINYL-SUBSTITUTED LACTAMS AS GPR119 MODULATORS” (Array BioPharma Inc., priority 2011, published 2014).

This assay relates to modified version of the GPR119 receptor (94% identity to human receptor). The assay can be described thus: cAMP production assay (LANCE cAMP kit, TR-FRET) in HEK-293 cells. It is filed as cell-based. Conditions: for cAMP production in HEK-293 cells: HEK-293 cells stably expressing modified GPR119, test compounds 0.2 nM to 10 μM, one-hour incubation; for Fold over baseline: increase in cAMP relative to basal levels, agonist activity if 1.5-fold or greater. The method, then: The assay utilized HEK-293 cells that stably express a modified version of the GPR119 receptor (94% identity to human receptor), under the control of a CMV promoter containing a tet-on element for tetracycline-inducible expression. GPR119 agonist-induced cyclic AMP (cAMP) production was measured in this cell line using the LANCE cAMP kit (Perkin Elmer, Waltham, Mass.). To generate a working stock of cells for the assay, cells were treated overnight with 1 μg/mL doxycycline at 37° C. in the presence of 5% CO2 to induce receptor expression. Cells were then harvested by enzymatic dissociation with 0.05% trypsin, resuspended in freezing medium (DMEM growth medium with 10% each of fetal bovine serum and DMSO), aliquoted and frozen at −80° C. On the day of the assay, frozen cells were thawed, washed 1× in PBS and resuspended in Hank's buffered salt solution (HBSS) containing 5 mM HEPES, 0.1% BSA and Alexa Fluor 647-conjugated anti-cAMP antibody (diluted 1:100). The cell suspension was then transferred to a Proxiplate Plus white 384-well assay plate (Perkin-Elmer) at 2000 cells/well. Test compounds at final concentrations ranging from 0.2 nM to 10 μM were added to the assay plate, followed by a one-hour incubation at ambient temperature (volume=10 μL/well). DMSO concentration was held constant at 0.5%. After incubation with test compounds, 10 μL, of a detergent buffer containing a biotinylated cAMP/Europium-conjugated streptavidin complex (Europium-labeled cAMP tracer) were added to each well on the assay plate, followed by a 2-hour incubation at ambient temperature. During this incubation cAMP released from lysed cells competes with the Europium-labeled cAMP tracer for binding to the Alexa Fluor 647-conjugated antibody. […] Cellular cAMP levels were then determined by interpolation of raw signal data using a cAMP standard curve. Compounds were determined to have agonist activity if they stimulated a 1.5-fold or greater increase in cAMP relative to basal levels.
Background: Changes in cAMP serve as a functional read-out for many G protein-coupled receptors.

Counter-ions that a name gives are not always drawn.

In the case of `CC(C)c1nsc(N2CCC(N3CCC(Oc4ccc(S(=O)(=O)C(C)C)cc4F)C3=O)CC2)n1` (stereo not drawn) [Example 45, 3-(2-fluoro-4-(isopropylsulfonyl)phenoxy)-1-(1-(3-isopropyl-1,2,4-thiadiazol-5-yl)piperidin-4-yl)pyrrolidin-2-one], the “cAMP production in HEK-293 cells” value was determined as 17.8 nmol and the Fold over baseline stood at 3.5.
For `CC(C)c1nsc(N2CCC(N3CCC(Oc4ccc(S(=O)(=O)C5CC5)cc4F)C3=O)CC2)n1` (stereo not drawn) [Example 46, 3-(4-(Cyclopropylsulfonyl)-2-fluorophenoxy)-1-(1-(3-isopropyl-1,2,4-thiadiazol-5-yl)piperidin-4-yl)pyrrolidin-2-one trifluoroacetate] the same measures were 20.7 nmol and 4.7.
In the same order, the values of `CS(=O)(=O)c1cc(F)c(OC2CCN(C3CCN(c4nc(C5CC5)ns4)CC3)C2=O)cc1F.O=C(O)C(F)(F)F` (stereo not drawn) [Example 47, 1-(1-(3-Cyclopropyl-1,2,4-thiadiazol-5-yl)piperidin-4-yl)-3-(2,5-difluoro-4-(methylsulfonyl)phenoxy)pyrrolidin-2-one trifluoroacetate] are 9.8 nmol and 2.7.
For `CS(=O)(=O)c1cc(F)c(OC2CCN(C3CCN(c4nc(-c5ccccc5)ns4)CC3)C2=O)cc1F` (stereo not drawn) [Example 48, 3-(2,5-difluoro-4-(methylsulfonyl)phenoxy)-1-(1-(3-phenyl-1,2,4-thiadiazol-5-yl)piperidin-4-yl)pyrrolidin-2-one trifluoroacetate], the “cAMP production in HEK-293 cells” value stood at 20.5 nmol and the Fold over baseline is listed as 3.3.
Regarding `CC(C)Cc1nsc(N2CCC(N3CCC(Oc4cc(F)c(S(C)(=O)=O)cc4F)C3=O)CC2)n1` (stereo not drawn) [Example 49, 3-(2,5-difluoro-4-(methylsulfonyl)phenoxy)-1-(1-(3-isobutyl-1,2,4-thiadiazol-5-yl)piperidin-4-yl)pyrrolidin-2-one trifluoroacetate], the “cAMP production in HEK-293 cells” value was 15.4 nmol and the Fold over baseline is given as 2.8.
As to `CC(C)c1nsc(N2CCC(N3CC[C@H](Oc4ccc(S(C)(=O)=O)cc4F)C3=O)CC2)n1` [Example 50, (S)-3-(2-fluoro-4-(methylsulfonyl)phenoxy)-1-(1-(3-isopropyl-1,2,4-thiadiazol-5-yl)piperidin-4-yl)pyrrolidin-2-one], the “cAMP production in HEK-293 cells” value worked out at 15.1 nmol and the Fold over baseline stood at 5.6.
With `CC(C)c1nsc(N2CCC(N3CC[C@@H](Oc4ccc(S(C)(=O)=O)cc4F)C3=O)CC2)n1` [Example 51, (R)-3-(2-fluoro-4-(methylsulfonyl)phenoxy)-1-(1-(3-isopropyl-1,2,4-thiadiazol-5-yl)piperidin-4-yl)pyrrolidin-2-one], the “cAMP production in HEK-293 cells” value came to 33.3 nmol and the Fold over baseline was found to be 5.9.
For `CC(C)c1nsc(N2CCC(N3CC[C@H](Oc4cc(F)c(S(C)(=O)=O)cc4F)C3=O)CC2)n1` [Example 52, (S)-3-(2,5-difluoro-4-(methylsulfonyl)phenoxy)-1-(1-(3-isopropyl-1,2,4-thiadiazol-5-yl)piperidin-4-yl)pyrrolidin-2-one] the same measures were 24.6 nmol and 3.9.
In the same order, the values of `CC(C)c1nsc(N2CCC(N3CC[C@H](Oc4ccc(S(C)(=O)=O)c(F)c4)C3=O)CC2)n1` [Example 53, (S)-3-(3-fluoro-4-(methylsulfonyl)phenoxy)-1-(1-(3-isopropyl-1,2,4-thiadiazol-5-yl)piperidin-4-yl)pyrrolidin-2-one] are 24.5 nmol and 4.9.
For `CC(C)c1nsc(N2CCC(N3CC[C@H](Oc4ccc(S(C)(=O)=O)c(Cl)c4)C3=O)CC2)n1` [Example 54, (S)-3-(3-chloro-4-(methylsulfonyl)phenoxy)-1-(1-(3-isopropyl-1,2,4-thiadiazol-5-yl)piperidin-4-yl)pyrrolidin-2-one] the same measures were 17.2 nmol and 3.6.
As to `CN(C)c1nsc(N2CCC(N3CC[C@H](Oc4cc(F)c(S(C)(=O)=O)cc4F)C3=O)CC2)n1` [Example 55, (S)-3-(2,5-difluoro-4-(methylsulfonyl)phenoxy)-1-(1-(3-(dimethylamino)-1,2,4-thiadiazol-5-yl)piperidin-4-yl)pyrrolidin-2-one], the “cAMP production in HEK-293 cells” value was 17.2 nmol and the Fold over baseline was determined as 3.8.
In the same order, the values of `CC(C)Cc1nsc(N2CCC(N3CC[C@H](Oc4ccc(S(C)(=O)=O)cc4F)C3=O)CC2)n1` [Example 56, (S)-3-(2-fluoro-4-(methylsulfonyl)phenoxy)-1-(1-(3-isobutyl-1,2,4-thiadiazol-5-yl)piperidin-4-yl)pyrrolidin-2-one] are 17.4 nmol and 3.4.
In the same order, the values of `Cc1cc(O[C@H]2CCN(C3CCN(c4nc(C(C)C)ns4)CC3)C2=O)c(F)cc1Br` [Example 57, (S)-3-(4-bromo-2-fluoro-5-methylphenoxy)-1-(1-(3-isopropyl-1,2,4-thiadiazol-5-yl)piperidin-4-yl)pyrrolidin-2-one] are 22.0 nmol and 2.8.
In the same order, the values of `Cc1cc(O[C@H]2CCN(C3CCN(c4nc(C(C)C)ns4)CC3)C2=O)c(F)cc1S(C)(=O)=O` [Example 58, (S)-3-(2-fluoro-5-methyl-4-(methylsulfonyl)phenoxy)-1-(1-(3-isopropyl-1,2,4-thiadiazol-5-yl)piperidin-4-yl)pyrrolidin-2-one] are 48.4 nmol and 4.9.
As for `CS(=O)(=O)c1ccc(O[C@H]2CCN(C3CCN(c4nc(C5CCOCC5)ns4)CC3)C2=O)c(F)c1` [Example 59, (S)-3-(2-fluoro-4-(methylsulfonyl)phenoxy)-1-(1-(3-(tetrahydro-2H-pyran-4-yl)-1,2,4-thiadiazol-5-yl)piperidin-4-yl)pyrrolidin-2-one], the “cAMP production in HEK-293 cells” value came to 28.3 nmol and the Fold over baseline came to 4.2.
For `CC1(c2nsc(N3CCC(N4CC[C@H](Oc5ccc(S(C)(=O)=O)cc5F)C4=O)CC3)n2)CCOCC1` [Example 60, (S)-3-(2-fluoro-4-(methylsulfonyl)phenoxy)-1-(1-(3-(4-methyltetrahydro-2H-pyran-4-yl)-1,2,4-thiadiazol-5-yl)piperidin-4-yl)pyrrolidin-2-one] the same measures were 13.2 nmol and 4.5.
For `CCS(=O)(=O)c1ccc(OC2CCN(C3CCN(c4nc(C(C)C)ns4)CC3)C2=O)c(F)c1` (stereo not drawn) [Example 61, 3-(4-(ethylsulfonyl)-2-fluorophenoxy)-1-(1-(3-isopropyl-1,2,4-thiadiazol-5-yl)piperidin-4-yl)pyrrolidin-2-one] the same measures were 23.5 nmol and 3.5.
In the same order, the values of `CC(C)c1nsc(N2CCC(N3CCC(Oc4ccc(S(=O)(=O)c5ccccc5)cc4F)C3=O)CC2)n1` (stereo not drawn) [Example 62, 3-(2-Fluoro-4-(phenylsulfonyl)phenoxy)-1-(1-(3-isopropyl-1,2,4-thiadiazol-5-yl)piperidin-4-yl)pyrrolidin-2-one] are 17.4 nmol and 2.7.
